These results are taken from patent US20260306491A1, “EGFR INHIBITOR FOR TREATING CANCERS COMPRISING ATYPICAL EGFR MUTATIONS” (ORIC Pharmaceuticals, Inc., priority 2023, published 2026).

In general, EC50 refers to the concentration giving half of the maximal effect.

For assay [1], the system named is HER2 exon 20 insertion mutated NSCLC. The assay can be described thus: Clinical study: duration of treatment and antitumor response, HER2 exon 20 insertion mutated NSCLC (Example 10). It counts as in vivo, human. The protocol:
A clinical study was conducted using Compound I in human subjects having non-small cell lung cancer (NSCLC) comprising EGFR exon 20 insertion mutations, HER2 exon 20 insertion mutations, or HER2 amplification or overexpression. A total of 50 human subjects having non-small cell lung cancer comprising one or more EGFR exon 20 insertion mutations, HER2 exon 20 insertion mutations, or HER2 amplification or overexpression were enrolled in the study as of Jul. 31, 2023 with data collected as of Sep. 26, 2023. The subjects were enrolled into one of ten dosing cohorts that were each orally administered Compound I in the form of a hemifumarate salt as shown in Table 13 (QD=once per day; BID=twice per day).
Duration of treatment and antitumor responses achieved in evaluable subjects with HER2 exon 20 insertion mutate NSCLC (dose level greater than or equal to 45 mg TDD and at least one post-baseline tumor assessment) who were administered Compound I in the form of a hemifumarate salt are set forth in Tables 21 and 22, respectively.

Assay [2] deals with Ba/F3 cells expressing EGFR_G719S. The assay can be described thus: Cell viability (CellTiter-Glo). Type of assay: cell-based. The note with it: Mus musculus, BaF3; 72 hours; average ± standard deviation; read-out: Absolute EC50 (50% growth). On the procedure: (§1) A cell-based assay was used to evaluate the potency of Compound I on cells where the growth of the cells is either driven by EGFR wild type (WT) or cells comprising atypical mutant EGFR proteins. Cell viability was assessed following treatment with compounds and the assay developed with CellTiterGlo (CTG) reagent that measures ATP levels in cells. Compound I was dissolved in DMSO to generate a 10 mM stock solution. Dosing solutions were prepared by serial dilution in DMSO followed by dilution in complete media to result in a 0.4% DMSO in the assay. Ba/F3 cells expressing EGFR mutants EGFR_G719S, EGFR_G724S, EGFR_L718Q, EGFR_L718V, EGFR_L858R/1L718Q, EGFR_L858R/1L718V, EGFR_del19/L792K. EGFR_del19/G796S were generated following co-transfection of the EGFR mutant of interest with PhiC31 integrase. Two days following transfection, the media was changed and replaced with media lacking mIL3 with the addition of human EGF (hEGF) as well as puromycin to select stable cell lines. After the cell lines were established genomic DNA (gDNA) was extracted to confirm the sequence of the construct of interest. The culture Media for Ba/F3 EGFR mutants was RPMI+10% FBS+2 mM L-Glut±10 ng/ml hEGF+0.5 pig/ml puromycin. The following reagents were used to conduct the assays: RPMI1640 with phenol red (Corning, Cat #: 15-040-CV); Fetal Bovine Serum (FBS) (Omega Scientific, Cat #: FR-11); Human Epidermal Growth Factor (hEGF) (Cell Signaling Cat #8916SC); L-Glutamine (Corning, Cat #: 25-005-CI); Puromycin (Gibco, Cat #A11138-03); assay media was the same as culture medium; CellTiter-Glo® 2.0 Cell Viability Assay (Promega, Cat #G9243), DMSO (Sigma, Cat #: D2660). The following equipment was used to conduct the assays: Bravo Liquid Handler (Agilent #G5523BA); and the following supplies: 96-well Non-Sterile Polypropylene V Bottom Plates (Corning, Cat #: 3363); 384-well Sterile White with Flat Clear Bottom Plates (Greiner, 781098); and PerkinElmer TopSeal-A Plus plate seal (Cat. #6050185).
(§2) Ba/F3 cell lines expressing either EGFR WT or mutant proteins were cultured in complete culture media at exponential growth phase for at least one week prior to assay. The different cell suspensions were counted and seeded into 384-well Sterile White Flat Clear Bottom Plates using a Bravo liquid handler, according to the appropriate cell number in 36 μl of media per well as follows: (a) Ba/F3-WT-EGFR: 2000 cells per well of a 384 well plate; (b) Ba/F3-G719S-EGFR: 2000 cells per well of a 384 well plate; (c) Ba/F3 G724S-EGFR: 1000 cells per well of a 384 well plate; (d) Ba/F3-L718Q-EGFR: 1000 cells per well of a 384 well plate; (e) Ba/F3-L718V-EGFR: 1000 cells per well of a 384 well plate; (f) Ba/F3-L858R/L718Q-EGFR: 1000 cells per well of a 384 well plate; (g) Ba/F3-L858R/L718V-EGFR: 1000 cells per well of a 384 well plate; (h) Ba/F3-del19/L792H-EGFR: 1000 cells per well of a 384 well plate; (i) Ba/F3-del19/G796S-EGFR: 1000 cells per well of a 384 well plate.
(§3) Compound I was solubilized in DMSO as 10 mM stock solutions. These were stored as aliquots at −80° C. and used only once after thawing. The highest concentration of Compound I in the final assay plate was 500 nM. To prepare the compound dilutions intermediate dilution plates were prepared using the Bravo liquid handler by performing 12-point ⅓-fold serial dilutions in DMSO to a final concentration of 250-fold the concentration in the final assay plate, followed by a 1/25 dilution into complete assay media. Compound dilutions in media were added to cells (final assay plate) by dispensing 4 μL into cells plated the same day in 36 μl of medium of media. Plates were placed in a 37° C., 5% CO2 incubator. Following 72 hours of incubation, plates were left to equilibrate at room temperature before the addition of 1:1 ratio of CTG 2.0 using the Bravo liquid handler. […]
Background: Cellular ATP, detected with luciferase, serves as a proxy for viable cell number.

The test system of assay [3] is Ba/F3 cells expressing EGFR_del19/G796S. Kind of assay: Cell viability (CellTiter-Glo). Conditions: Mus musculus, BaF3; 72 hours; average ± standard deviation; read-out: Absolute EC50 (50% growth). Type of assay: cell-based. The protocol: as §1, §2, §3
The test system of assay [4] is Ba/F3 cells expressing EGFR_L858R/L718Q. The assay can be described thus: Cell viability (CellTiter-Glo). Type of assay: cell-based. Conditions: Mus musculus, BaF3; 72 hours; average ± standard deviation; read-out: Absolute EC50 (50% growth). On the procedure:
as §1, §2, §3

Assay [5] has as its system Ba/F3 cells expressing EGFR_L858R/L718V. Kind of assay: Cell viability (CellTiter-Glo). It counts as cell-based. Conditions: Mus musculus, BaF3; 72 hours; average ± standard deviation; read-out: Absolute EC50 (50% growth). On the procedure:
as §1, §2, §3

In assay [6] the test system is Ba/F3 cells expressing EGFR_G724S. Kind of assay: Cell viability (CellTiter-Glo). Type of assay: cell-based. Conditions: Mus musculus, BaF3; 72 hours; average ± standard deviation; read-out: Absolute EC50 (50% growth). On the procedure: as §1, §2, §3

Values joined by “and” are separate entries in the source; they are usually repeats but may differ in a detail not shown here. Equal entries are not always repeated.

Regarding `C=CC(=O)Nc1cc(Nc2cc(N3OCC[C@@H]3c3cc(F)cc(F)c3)ncn2)c(OC)cc1N1CCC(N2CCN(C3CC3)CC2)CC1` [Compound I, N-[2-[4-(4-cyclopropyl-1-piperazinyl)-1-piperidinyl]-5-[[6-[(3R)-3-(3,5-difluorophenyl)-2-isoxazolidinyl]-4-pyrimidinyl]amino]-4-methoxyphenyl]-2-propenamide], the Duration of treatment is 79 days and Ongoing (3×) and 54 days in assay [1] (oral hemifumarate, dosing cohort 30 BID, one value per subject); “Ongoing” in assay [1] (oral hemifumarate, dosing cohort 45 QD, one value per subject); 28 days in assay [1] (oral hemifumarate, dosing cohort 60 QD, one value per subject); 179 days and 47 days in assay [1] (oral hemifumarate, dosing cohort 75 QD, one value per subject); “Ongoing” in assay [1] (oral hemifumarate, dosing cohort 90 QD, one value per subject); 2 days in assay [1] (po). In assay [1] (oral hemifumarate, ≥45 mg TDD, one value per subject (subjects 1 to 13)), the “Best percent change in the sum of target lesions from baseline” value is 0% (2×) and −3% and −19% and −31% and −33% and −34% and −55% and −100% and 31% and 11% and 9% and 5%. Also, the EC50 in assay [2] is 0.7 ± 0.1 nM; in assay [3], 1.1 ± 0.7 nM; in assay [4], 0.8 ± 0.5 nM; in assay [5], 0.2 ± 0.2 nM; in assay [6], 1.4 ± 0.9 nM.
